Measured values: a melting point compilation (Tetko et al.; mined from patent text by program, amines drawn as free bases though some values may be those of a salt)

Row | Structure (SMILES) | melting point [°C]
1 | O=C1C(c2ccccc2)=C(c2cccs2)C(=O)N1c1ccc(Cl)cc1 | 176 to 177
2 | Cn1cc(-c2cccc(F)c2)c(=O)c(-c2cccc(Cl)c2)c1 | 145 to 146
3 | O=C1CCC(N2Cc3cc(CNC(=S)Nc4ccc(SC(F)(F)F)cc4)ccc3C2=O)C(=O)N1 (stereo unspecified) | 229 to 231
4 | O=C(NC/C=C\COc1cc(CN2CCCCC2)ccn1)c1csnn1 | 70 to 72
5 | CCOc1ccc(C2=NN(C3CCN(C(=O)N4CCOCC4)CC3)C(=O)[C@@H]3CC=CC[C@H]23)cc1OCC | 139 to 141
6 | O=c1cc(OCc2ccccc2)c2ccc(OCCc3ccc(F)cc3)cc2o1 | 120
7 | COC(=O)CSc1cc(=O)n(C)c(=O)n1C | 96 to 97.5
8 | CN(Cc1ccc(NC(=O)C2=Cc3cc(-c4ccc(C(C)(C)C)cc4)ccc3S(=O)(=O)CC2)cc1)C1CCOCC1 | 247 to 249
9 | C=C(C)C(=O)Oc1c(Cc2cc(C)cc(C(C)(C)C)c2O)cc(C)cc1C(C)(C)C | 144 to 146
10 | Cc1ccccc1C(=O)Nn1c(=O)c(=O)[nH]c2ccc3ccc([N+](=O)[O-])cc3c21 | > 230
11 | OC(c1ccc(Cl)cc1)(c1ccc(Cl)cc1)C1CO1 (stereo unspecified) | 87 to 88
12 | O=C(O)CCc1c(C(=O)O)[nH]c2cc(Br)ccc12 | 234 to 235
13 | O=C1NCCN1c1ccc(S(=O)(=O)Nc2ccc3[nH]ccc3c2)cc1 | 239 to 241
14 | CC(=O)c1cn(C(c2ccccc2)(c2ccccc2)c2ccccc2)cn1 | 158 to 160
15 | NNc1ccc([N+](=O)[O-])cc1F | 119 to 121
16 | CSCC12CCC(=CF)C=C1CCC1C3CCC(=O)C3(C)CCC12 (stereo unspecified) | 146 to 147
17 | CCCC(C)(C)C(=O)Oc1ccc(C(=O)CNC(C)(C)C)cc1O | 128 to 130
18 | CN(C)c1ccc(OCC(=O)c2cccc(Cl)c2)cc1 | 69 to 70
19 | Cc1ccc(S(=O)(=O)OCC2(CO)OC(n3ccc(=O)[nH]c3=O)C(O)C2OCc2ccccc2)cc1 (stereo unspecified) | 195 to 197
20 | Cc1ccc2c(c1)c(=O)c1c(cnn1C)n2CCCl | 116 to 119
21 | CNC(=C[N+](=O)[O-])NCCCOc1cccc(CCN(C)C)c1 | 93 to 94
22 | Cc1csc(N=CN(C)C)n1 | 54 to 56
23 | CCc1nc2c(N)nc3ccccc3c2n1CCCC(C)=O | 206 to 208
24 | CCOc1ccc(C2=NN(CCCCOc3ccc(C4=NNC(=O)CC4C)cc3)C(=O)C3CC=CCC23)cc1OCC (stereo unspecified) | 73 to 78
25 | CC(O)C1CCCCCCCCCCC1 (stereo unspecified) | 35
26 | CON(C)C(=O)c1cc(-n2c(=O)cc(C(F)(F)F)[nH]c2=O)c(F)cc1Cl | > 220

Row | Structure (SMILES) | melting point [°C]
27 | COc1ccc(CCC(N)CC(=O)O)cc1 (stereo unspecified) | 180 to 184
28 | CCN(C(=O)OC(C)(C)C)n1c(C)nc(N2CCc3ccccc3CC2)c(C#N)c1=O | 86 to 88
29 | C=CCCCCCCCCOc1ccc(O)cc1 | 54 to 55
30 | COc1cc(C(=O)NS(=O)(=O)c2ccccc2C)ccc1Cc1c[nH]c2ccc(NC(=O)CC3CCCC3)cc12 | 248 to 250
31 | N#Cc1c(-c2ccccc2)nn2ccccc12 | 138 to 139
32 | O=C(Nc1cccc2c(=O)cc(C(=O)O)oc12)c1cc(Cl)c2c(c1)CC(CCCc1ccccc1)O2 (stereo unspecified) | 224 to 225
33 | CCCc1nn(C)c(C(N)=O)c1NC(=O)c1sccc1OCC | 103 to 104
34 | N#CCCc1cccc(O)c1 | 64 to 66
35 | COc1ccccc1CNc1ccc2cc(Nc3cccc(C)n3)ccc2n1 | 134
36 | COc1c(Cl)ccc(-c2nc(C(=O)OC(C)C)cc(Cl)c2Cl)c1F | 124 to 128
37 | CC1(O)NC(=O)OC12CCNCC2 (stereo unspecified) | 192 to 194
38 | O=C(Nc1cccc(C(F)(F)F)c1)c1cccc(Oc2cccc(C(F)(F)F)c2)n1 | 93.1 to 93.7
39 | Cc1cc(C)c2nc(CO)n(C)c2n1 | 178 to 179
40 | N#Cc1ccc2cc(CBr)ccc2c1 | 134 to 137
41 | Nc1cc(C(=O)O)cc(OCc2ccccc2)c1C(=O)c1ccccc1 | 216 to 218
42 | CCCCCCC(C)(C)c1cc(O)c2c(c1)OC(C)(C)[C@@H]1CCC(=O)C[C@H]21 (relative stereo) | 151 to 153
43 | c1ccc(-c2nn(CCCCCCCCc3nn[nH]n3)c(-c3ccccc3)c2-c2ccccc2)cc1 | 158 to 160
44 | CCCOC1(C(F)(F)F)CN(C2CC2)C(=O)Nc2ccc(Cl)cc21 (stereo unspecified) | 153 to 154
45 | COc1ccc(N2CCN(c3c(C)c(C)c4c(c3C)C(c3cccc5ccccc35)C(C)(C)O4)CC2)cc1 (stereo unspecified) | 165 to 166
46 | N=C(Nc1ccc(CCNCc2ccccc2)cc1)c1cccs1 | 116 to 118
47 | CC1C=C(C(=O)C(C#N)C(=O)Nc2ccccc2)c2cccc3c2=C1C1=CN=NC=31 (stereo unspecified) | 275 to 278
48 | CC(C)(C)c1ccc(C2OCC(CO)([N+](=O)[O-])CO2)cc1 (stereo unspecified) | 90 to 92
49 | O=c1oc(=O)c2ccc3c4ccccc4sc4ccc1c2c43 | 315 to 317
50 | CCOC(=O)C(=O)CC(=O)c1cn(Cc2ccccc2F)c2ccccc2c1=O | 152 to 153
51 | Cc1c(-c2ccnc(Cl)n2)cccc1[N+](=O)[O-] | 138 to 139
52 | Cc1nn(-c2ccc(C(F)(F)F)cn2)cc1C=O | 226 to 227

Row | Structure (SMILES) | melting point [°C]
53 | NCC(=O)N1CCN(C(=O)c2cc(C(F)(F)F)cc(C(F)(F)F)c2)[C@H](Cc2c[nH]c3ccccc23)C1 | 110 to 120
54 | CN(CC(CCOS(C)(=O)=O)c1ccc(Cl)c(Cl)c1)C(=O)c1ccccc1 (stereo unspecified) | 100 to 102
55 | OC1CSC(Oc2cccnc2-c2cccnc2)C(O)C1O (stereo unspecified) | 80
56 | CSc1sc(C(=O)N2CCOCC2)c2c1-c1oncc1C(C)(C)C2 | 175 to 177
57 | COc1cc(CNc2nc(N)n3nc(-c4ccco4)nc3n2)cc(OC)c1OC | 221 to 224
58 | COc1cc(-n2c(C#N)c3n(c2=O)CCCC3)c(F)cc1Cl | 173 to 175
59 | Cc1ccc(C)c(-c2sc(NC(=O)[C@@H]3C[C@@H]4CC[C@H]3C4)c(C#N)c2Cl)c1 | 117 to 119
60 | CCOC(=O)Cc1nc(-c2ccccc2)oc1-c1ccco1 | 79 to 80
61 | CC(=O)CCc1ccc2c(c1)C(=O)c1ccccc1-2 | 75 to 77
62 | O=C1NCC(CN2C(=O)C3(COc4cc5c(cc43)OCO5)c3ccccc32)O1 (stereo unspecified) | 195 to 202
63 | CCc1c(Sc2cc(C)cc(C)c2)[nH]c(=O)[nH]c1=O | 224 to 225
64 | COc1ccc(OC2COc3ccc(OCc4ccc5ccccc5n4)cc3C2O)cc1 (stereo unspecified) | 131 to 132
65 | CCOc1cc(C)ccc1C1CCN(CCCCNC(=O)c2ccc3c(c2)cc(-c2ccc(Cl)cc2)n3C)CC1 | 174 to 175
66 | CCOC(OCC)P(=O)(O)CCCN(C)Cc1ccc(Cl)cc1 | 170
67 | O=S1NC(CC2=Cc3ccccc3CC2)=NO1 (stereo unspecified) | 118 to 120
68 | CC(C)(C)OC(=O)NC(CO)C(c1ccccc1)c1ccccc1 (stereo unspecified) | 95 to 96
69 | Cc1ccc(-c2cc(NC(=O)C3Cc4ccccc4C3)n[nH]2)cc1 | 220 to 225
70 | CSc1c(C(N)=S)nn(-c2c(Cl)cc(C(F)(F)F)cc2Cl)c1N | 161
71 | CCCc1nc(C(C)(C)O)c(C(=O)OC2OC(=O)c3ccccc32)n1Cc1ccc(-c2ccccc2-c2nnn[nH]2)cc1 (stereo unspecified) | 168 to 170
72 | CCOC(=O)C(=O)Nc1c([N+](=O)[O-])cc(Br)c2cccnc12 | 213 to 215
73 | CC(C)n1nc(C(=O)Cl)c2ccccc21 | 63 to 64
74 | C[C@]12CC(=C(F)F)[C@H]3[C@@H](CCC4=CC(=O)CC[C@@H]43)[C@@H]1CCC2=O | 158 to 164
75 | C=CCc1cc(Cl)c2ccccc2c1O | 55 to 57
76 | Cc1[nH]c(=O)ccc1-c1ccc(O)c([N+](=O)[O-])c1 | 260 to 262
77 | Cc1cccc(C)c1CNc1c(NC(C)(C)C)c(=O)c1=O | 265 to 267
78 | CC(C)(NC(=O)CCn1cnc(C=O)c1)c1ccc(Cl)cc1 | 151 to 153

Row | Structure (SMILES) | melting point [°C]
79 | CS(=O)CCC(=O)Nc1ccc(OCC(O)CO)cc1 (stereo unspecified) | 139 to 141
80 | O=C(Nc1nnn[nH]1)c1ccccc1O | 264 to 266
81 | CCCCCCCCc1cc2c(cc1/C(C)=C/c1ccc(C(=O)OC)cc1)C(C)(C)CCCS2(=O)=O | 85 to 86
82 | CCC(=O)C(Cc1cc(O)c(O)c([N+](=O)[O-])c1)C(=O)CC | 126 to 131
83 | CCc1cc2c(c3ccc(O)cc13)OCc1cc(O)ccc1-2 | 184 to 192
84 | O=c1[nH]cccc1-c1cccnc1 | 189 to 192
85 | CC(=O)Cc1nc2ccccc2s1 | 118 to 119
86 | COc1ccc(Oc2ccc3ccccc3n2)cc1 | 96.5 to 98
87 | COc1cc(NC(=O)CC23CC4CC(CC(C4)C2)C3)c(C)c(OC)c1 | 201 to 203
88 | CS(=O)(=O)c1ccc(C(=O)Nc2ccc(-n3nc(C4CC4)cc3C3CC3)cc2)cc1 | 171 to 176
89 | COC(=O)C(Oc1nc(OC)cc(OC)n1)C(C)(N=[N+]=[N-])c1ccccc1 (stereo unspecified) | 118 to 120
90 | COc1nc(C)nc(NC(=O)NS(=O)(=O)c2cccnc2Oc2ccccc2)n1 | 176 to 178
91 | CSCC(=O)[C@H](CC(C)C)NC(=O)[C@H](CC(C)C)NC(=O)OCc1ccccc1 | 96 to 97
92 | CCOC(=O)c1cn(-c2nncs2)c2cc(F)c(F)cc2c1=O | 235 to 238
93 | COc1ccc2c(c1)Sc1c(cc(OC)c(O)c1Br)N2C(=O)OC(C)OC(=O)C(C)(C)C (stereo unspecified) | 85
94 | O=[N+]([O-])c1ccc(Oc2ccccc2-c2ccccc2Oc2ccc([N+](=O)[O-])cc2)cc1 | 158
95 | CCOC(=O)c1c(C(F)F)nc(C(F)(F)F)c(C(=O)OCC)c1C1CC1 | 30 to 32
96 | CCC(=O)OC1C(=O)N(c2nnc(C(C)(C)C)s2)C(=O)N1C (stereo unspecified) | 176
97 | CCCCOC(=O)c1ccccc1OC(=O)N(C)SN(C)C(=O)ON=C(C)SC | 68 to 74
98 | Cc1ccc(OCC=C(Cl)Cl)c(Cl)c1O | 70
99 | CC(C)(C)OC(=O)CNc1ccccc1F | 70
100 | COc1ccc(-c2ccc(NC(=O)OC(C)(C)C)c([N+](=O)[O-])c2)cc1 | 107 to 109
101 | O=C(CCl)NC(C(=O)O)c1cscn1 (stereo unspecified) | 193 to 195
